From patent publication US7816371B2, “Bicycloheteroaryl compounds as P2X7 modulators and uses thereof” (Renovis, Inc., priority 2006, dated 2010) come the findings set out here.

Usually IC50 stands for the midpoint of a concentration-inhibition curve.

This test has as its target T1, P2X7 receptor (Homo sapiens, UniProt Q99572).
T1 construct: host or cells: THP-1 cells differentiated with LPS and IFN-γ
T1 sequence (Q99572 1-595): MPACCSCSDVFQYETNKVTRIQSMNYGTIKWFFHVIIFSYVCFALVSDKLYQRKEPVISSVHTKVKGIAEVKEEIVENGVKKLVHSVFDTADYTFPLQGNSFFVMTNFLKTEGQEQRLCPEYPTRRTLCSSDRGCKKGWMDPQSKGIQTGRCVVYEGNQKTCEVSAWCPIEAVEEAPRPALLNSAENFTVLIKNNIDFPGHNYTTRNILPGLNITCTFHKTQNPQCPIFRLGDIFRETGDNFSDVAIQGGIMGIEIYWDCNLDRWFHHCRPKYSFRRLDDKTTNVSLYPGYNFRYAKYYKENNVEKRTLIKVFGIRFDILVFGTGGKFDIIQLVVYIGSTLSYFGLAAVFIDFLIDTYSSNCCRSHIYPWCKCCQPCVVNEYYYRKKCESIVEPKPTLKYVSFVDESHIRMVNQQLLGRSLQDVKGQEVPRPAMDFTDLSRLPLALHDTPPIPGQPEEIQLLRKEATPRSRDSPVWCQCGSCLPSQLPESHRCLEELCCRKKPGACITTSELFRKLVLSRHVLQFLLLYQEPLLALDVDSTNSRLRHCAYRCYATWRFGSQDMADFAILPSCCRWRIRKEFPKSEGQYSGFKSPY
Briefly: IL-1β release assay in differentiated THP-1 cells stimulated with BzATP (Example 9); % inhibition and IC50. Type of test: cell-based. The following applies: THP-1 cells differentiated with LPS and IFN-γ, 30 min pretreatment, BzATP 250 uM, IL-1β by ELISA. Here is the method: The cells are then pretreated for 30 minutes with the compound of interest at the appropriate concentration in RPMI media containing 100 IU/mL penicillin, 100 ug/mL streptomycin. […] 30 uL of cell supernatant is then collected and IL-1β levels determined via ELISA (R&D systems Cat. # HSLB50) according to manufacturer's recommendations using the Tecan Safire plate reader. Background adjusted IL-1β levels of drug treated and non-treated cells are used to calculate the percent inhibition.
The compounds set forth in Table 1 were tested for activity in a cellular model as described herein.

On to `C[C@H](C(N)=O)n1ccc2c(NC(=O)[C@H](C)c3ccc(Cl)c(Cl)c3)cccc2c1=O` [Compound 269], for which the IC50 was determined as 8.97 nM. Under `C[C@H](CO)n1ccc2c(NC(=O)Cc3ccc(C(F)(F)F)cc3C(F)(F)F)cccc2c1=O` [Compound 361] stands 14.3 nM. Take `C[C@H](C(=O)Nc1cccc2c(=O)n([C@@H](C)CO)ccc12)c1ccc(Cl)c(Cl)c1` [Compound 326]: the IC50 amounted to 122 nM. The figure for `O=C(Cc1cc(C(F)(F)F)cc(C(F)(F)F)c1)Nc1cccc2c(=O)n(CCO)ccc12` [Compound 64] is 113 nM. Under `C[C@H](C(N)=O)n1ccc2c(NC(=O)Cc3ccccc3Cl)cccc2c1=O` [Compound 260] stands 694 nM; under `O=C(CCc1cc(C(F)(F)F)ccc1C(F)(F)F)Nc1cccc2c(=O)n(CCO)ccc12` [Compound 62], 22.2 nM; under `CC(C(=O)Nc1cccc2c(=O)n(CCO)ccc12)c1ccc(Cl)c(C(F)(F)F)c1` (centres unmarked) [Compound 251], 57.3 nM. The figure for `O=C(Cc1ccc(Cl)c(Cl)c1)Nc1cccc2c(=O)n(C(CO)CO)ccc12` [Compound 80] is 27.5 nM. On to `CC(C)(CO)n1ccc2c(NC(=O)Cc3ccc(Cl)c(C(F)(F)F)c3)cccc2c1=O` [Compound 369, 2-(4-Chloro-3-trifluoromethyl-phenyl)-N-[2-(2-hydroxy-1,1-dimethyl-ethyl)-1-oxo-1,2-dihydro-isoquinolin-5-yl]-acetamide], for which the IC50 came to 15 nM. Consider `CC(C)(CO)n1ccc2c(NC(=O)Cc3ccc(C(F)(F)F)cc3C(F)(F)F)cccc2c1=O` [Compound 366], for which the IC50 stood at 789 nM. Consider `C[C@H](C(=O)Nc1cccc2c(=O)n([C@@H](C(N)=O)c3ccccc3)ccc12)c1ccc(Cl)c(Cl)c1` [Compound 278, (S)—N-[2-((R)-Carbamoyl-phenyl-methyl)-1-oxo-1,2-dihydro-isoquinolin-5-yl]-2-(3,4-dichloro-phenyl)-propionamide], for which the IC50 is 58 nM.

As to `C[C@H](C(N)=O)n1ccc2c(NC(=O)Cc3ccc(Cl)cc3F)cccc2c1=O` [Compound 290], the IC50 came out at 7.63 nM. Consider `CS(=O)(=O)c1ccc(CCC(=O)Nc2cccc3c(=O)n(CCO)ccc23)cc1` [Compound 71], for which the IC50 was above 1000 nM. Under `O=C(Cc1ccc(C(F)(F)F)c(F)c1)Nc1cccc2c(=O)n(CCO)ccc12` [Compound 357] stands 14.6 nM; under `O=C(Cc1ccc(Cl)c(F)c1)Nc1cccc2c(=O)n(CCO)ccc12` [Compound 354], 84.2 nM. With `C[C@@H](CO)n1ccc2c(NC(=O)Cc3ccc(C(F)(F)F)cc3)cccc2c1=O` [Compound 318], the IC50 stood at 132 nM.

In the case of `CC(C)(CO)n1ccc2c(NC(=O)Cc3ccc(C(F)(F)F)cc3)cccc2c1=O` [Compound 363], the IC50 was found to be 167 nM. Under `C[C@@H](C(N)=O)n1ccc2c(NC(=O)Cc3ccc(Cl)c(F)c3)cccc2c1=O` [Compound 352] stands 32.7 nM; under `O=C(Cc1cc(C(F)(F)F)ccc1C(F)(F)F)Nc1cccc2c(=O)n(CCO)ccc12` [Compound 70], 406 nM. The figure for `C[C@H](C(N)=O)n1ccc2c(NC(=O)c3cccc4ncccc34)cccc2c1=O` [Compound 272] is above 1000 nM; for `C[C@H](C(N)=O)n1ccc2c(NC(=O)Cc3cc(F)c(F)c(F)c3)cccc2c1=O` [Compound 381] it is 32.4 nM; for `C[C@@H](CO)n1ccc2c(NC(=O)Cc3ccc(Cl)cc3F)cccc2c1=O` [Compound 328] it is 202 nM. Under `CNCCn1ccc2c(NC(=O)Cc3ccc(Cl)c(C(F)(F)F)c3)cccc2c1=O` [Compound 235, 2-(4-Chloro-3-trifluoromethyl-phenyl)-N-[2-(2-methylamino-ethyl)-1-oxo-1,2-dihydro-isoquinolin-5-yl]-acetamide] stands 70.6 nM; under `NCC(CCl)Cn1ccc2c(NC(=O)Cc3ccc(Cl)c(C(F)(F)F)c3)cccc2c1=O` (centres unmarked) [Compound 258, N-[2-(3-Amino-2-chloromethyl-propyl)-1-oxo-1,2-dihydro-isoquinolin-5-yl]-2-(4-chloro-3-trifluoromethyl-phenyl)-acetamide], 9.92 nM; under `O=C(Cc1ccc(Cl)cc1)Nc1cccc2c(=O)n(CCO)ccc12` [Compound 4], 317 nM. Turning to `CC(C)(CO)n1ccc2c(NC(=O)Cc3ccc(C(F)(F)F)c(F)c3)cccc2c1=O` [Compound 365], the IC50 stood at 41.1 nM. Take `O=C(Cc1ccc(F)c(Cl)c1)Nc1cccc2c(=O)n(CCO)ccc12` [Compound 341]: the IC50 amounted to 52.6 nM. As to `O=C(Cc1cc(Cl)ccc1C(F)(F)F)Nc1cccc2c(=O)n(CCO)ccc12` [Compound 68], the IC50 stood at 720 nM. Under `C[C@H](C(N)=O)n1ccc2c(NC(=O)Cc3cccc(C(F)(F)F)c3F)cccc2c1=O` [Compound 285] stands 6.62 nM. Under `C[C@@H](CO)n1ccc2c(NC(=O)Cc3ccc(F)c(Cl)c3)cccc2c1=O` [Compound 331] stands 163 nM; under `C[C@@H](CO)n1ccc2c(NC(=O)Cc3cccc(C(F)(F)F)c3F)cccc2c1=O` [Compound 325], 84.6 nM; under `C[C@H](C(N)=O)n1ccc2c(NC(=O)Cc3ccc(C(F)(F)F)cc3C(F)(F)F)cccc2c1=O` [Compound 380], 64.3 nM.

As for `C[C@H](CO)n1ccc2c(NC(=O)Cc3ccc(Cl)c(F)c3)cccc2c1=O` [Compound 330, 2-(4-Chloro-3-fluorophenyl)-N-[2-((R)-2-hydroxy-1-methyl-ethyl)-1-oxo-1,2-dihydro-isoquinolin-5-yl]-acetamide], the IC50 was determined as 13.3 nM. The figure for `O=C(Cc1ccc2c(c1)OCCO2)Nc1cccc2c(=O)n(CCO)ccc12` [Compound 63] is above 1000 nM; for `C[C@H](C(=O)Nc1cccc2c(=O)n([C@H](C)C(=O)O)ccc12)c1ccc(Cl)cc1` [Compound 322, (R)-2-{5-[(S)-2-(4-Chloro-phenyl)-propionylamino]-1-oxo-1H-isoquinolin-2-yl}-propionic acid] it is 572 nM.

Take `NC(=O)Cn1ccc2c(NC(=O)Cc3ccc(Cl)c(C(F)(F)F)c3)cccc2c1=O` [Compound 249, 2-{5-[2-(4-Chloro-3-trifluoromethyl-phenyl)-acetylamino]-1-oxo-1H-isoquinolin-2-yl}-acetamide]: the IC50 was determined as 4.83 nM.

`C[C@@H](C(N)=O)n1ccc2c(NC(=O)Cc3ccc(F)c(Cl)c3)cccc2c1=O` [Compound 346]: the IC50 worked out at 66.9 nM.

As for `C[C@H](CO)n1ccc2c(NC(=O)Cc3ccc(F)c(Cl)c3)cccc2c1=O` [Compound 329], the IC50 turned out to be 206 nM. The figure for `CC(C(=O)Nc1cccc2c(=O)n(C[C@@H]3CCCN3)ccc12)c1ccc(Cl)cc1` (some centres unmarked) [Compound 246] is 113 nM; for `CC(C)(CO)n1ccc2c(NC(=O)Cc3ccc(Cl)cc3F)cccc2c1=O` [Compound 374] it is 175 nM.

Consider `O=C(Nc1cccc2c(=O)n(CCO)ccc12)c1ccccc1` [Compound 1], for which the IC50 was above 1000 nM. The figure for `CC(C(=O)Nc1cccc2c(=O)n([C@@H](C)C(N)=O)ccc12)c1ccc(Cl)cc1` (some centres unmarked) [Compound 240] is 11.8 nM; for `CC(C)[C@H](C(=O)NC1CC1)n1ccc2c(NC(=O)[C@H](C)c3ccc(Cl)cc3)cccc2c1=O` [Compound 282] it is 33.8 nM. The figure for `C[C@H](C(N)=O)n1ccc2c(NC(=O)Cc3ccc(-c4ccccc4)cc3)cccc2c1=O` [Compound 289] is 53 nM.
